Reference: ChEMBL document CHEMBL5113453, “Design, synthesis, and biological evaluation of a new series of pyrazole derivatives: Discovery of potent and selective JNK3 kinase inhibitors” (Bioorg Med Chem, 2022)

What was measured:
Type in all cases: functional, cell-based
[1] = system: KM12; experiment: Antiproliferative activity against human KM12 cells measured after 48 hrs by SRB assay
[2] = system: SF-539; experiment: Antiproliferative activity against human SF-539 cells measured after 48 hrs by SRB assay
[3] = system: HT-29; experiment: Antiproliferative activity against human HT-29 cells measured after 48 hrs by SRB assay
[4] = system: HOP-92; experiment: Antiproliferative activity against human HOP-92 cells measured after 48 hrs by SRB assay
[5] = system: ACHN; experiment: Antiproliferative activity against human ACHN cells measured after 48 hrs by SRB assay
[6] = system: CCRF-CEM; experiment: Antiproliferative activity against human CCRF-CEM cells measured after 48 hrs by SRB assay
[7] = system: NCI/ADR-RES; experiment: Antiproliferative activity against human NCI-ADR-RES cells measured after 48 hrs by SRB assay
[8] = system: OVCAR-3; experiment: Antiproliferative activity against human OVCAR-3 cells measured after 48 hrs by SRB assay
[9] = system: MOLT-4; experiment: Antiproliferative activity against human MOLT-4 cells measured after 48 hrs by SRB assay
[10] = system: SK-MEL-28; experiment: Antiproliferative activity against human SK-MEL-28 cells measured after 48 hrs by SRB assay
[11] = system: UO-31; experiment: Antiproliferative activity against human UO-31 cells measured after 48 hrs by SRB assay
[12] = system: HOP-62; experiment: Antiproliferative activity against human HOP-62 cells measured after 48 hrs by SRB assay
[13] = system: A498; experiment: Antiproliferative activity against human A498 cells measured after 48 hrs by SRB assay
[14] = system: A549; experiment: Antiproliferative activity against human A549 cells measured after 48 hrs by SRB assay
[15] = system: OVCAR-5; experiment: Antiproliferative activity against human OVCAR-5 cells measured after 48 hrs by SRB assay
[16] = system: SNB-75; experiment: Antiproliferative activity against human SNB-75 cells measured after 48 hrs by SRB assay
[17] = system: SN12C; experiment: Antiproliferative activity against human SN12C cells measured after 48 hrs by SRB assay
[18] = system: Malme-3M; experiment: Antiproliferative activity against human Malme-3M cells measured after 48 hrs by SRB assay
[19] = system: SK-MEL-2; experiment: Antiproliferative activity against human SK-MEL-2 cells measured after 48 hrs by SRB assay
[20] = system: SW-620; experiment: Antiproliferative activity against human SW-620 cells measured after 48 hrs by SRB assay
[21] = system: RXF 393; experiment: Antiproliferative activity against human RXF 393 cells measured after 48 hrs by SRB assay
[22] = system: DU-145; experiment: Antiproliferative activity against human DU-145 cells measured after 48 hrs by SRB assay
[23] = system: OVCAR-4; experiment: Antiproliferative activity against human OVCAR-4 cells measured after 48 hrs by SRB assay
[24] = system: OVCAR-8; experiment: Antiproliferative activity against human OVCAR-8 cells measured after 48 hrs by SRB assay
[25] = system: UACC-62; experiment: Antiproliferative activity against human UACC-62 cells measured after 48 hrs by SRB assay
[26] = system: SF-268; experiment: Antiproliferative activity against human SF-268 cells measured after 48 hrs by SRB assay
[27] = system: WI-38; experiment: Antiproliferative activity against human WI-38 cells measured by MTT assay
[28] = system: NCI-H226; experiment: Antiproliferative activity against human NCI-H226 cells measured after 48 hrs by SRB assay
[29] = system: NCI-H23; experiment: Antiproliferative activity against human NCI-H23 cells measured after 48 hrs by SRB assay
[30] = system: PC-3; experiment: Antiproliferative activity against human PC-3 cells measured after 48 hrs by SRB assay
[31] = system: K562; experiment: Antiproliferative activity against human K562 cells measured after 48 hrs by SRB assay
[32] = system: RPMI-8226; experiment: Antiproliferative activity against human RPMI-8226 cells measured after 48 hrs by SRB assay
[33] = system: HCT-15; experiment: Antiproliferative activity against human HCT-15 cells measured after 48 hrs by SRB assay
[34] = system: HCT-116; experiment: Antiproliferative activity against human HCT-116 cells measured after 48 hrs by SRB assay
[35] = system: HCC 2998; experiment: Antiproliferative activity against human HCC 2998 cells measured after 48 hrs by SRB assay
[36] = system: NCI-H522; experiment: Antiproliferative activity against human NCI-H522 cells measured after 48 hrs by SRB assay
[37] = system: SR; experiment: Antiproliferative activity against human SR cells measured after 48 hrs by SRB assay

O=C1c2ccccc2-c2n[nH]c3cccc1c23 showed an IC50 ([1]; KM12, 48 h) of 2620 nM, a TGI ([1]; KM12, time 48 hrs) of 72.1 µM and an IC50 ([2]; SF-539, 48 h) of 32.2 µM. For the same compound, the TGI ([2]; SF-539, time 48 hrs) was greater than 100 µM, the IC50 ([3]; HT-29, 48 h) was 25.9 µM and the TGI ([3]; HT-29, time 48 hrs) was greater than 100 µM. It also gave an IC50 ([4]; HOP-92, 48 h) of 37.6 µM, a TGI ([4]; HOP-92, time 48 hrs) greater than 100 µM and an IC50 ([5]; 48 h) of 6.64 µM. For the same compound, the TGI ([5]; time 48 hrs) was greater than 100 µM, the IC50 ([6]; 48 h) was 16 µM and the TGI ([6]; time 48 hrs) was greater than 100 µM. It also gave an IC50 ([7]; 48 h) of 22.6 µM, a TGI ([7]; time 48 hrs) of 59.2 µM and an IC50 ([8]; OVCAR-3, 48 h) of 15.3 µM. It also gave a TGI ([8]; OVCAR-3, time 48 hrs) of 92 µM, an IC50 ([9]; MOLT-4, 48 h) of 20.4 µM and a TGI ([9]; MOLT-4, time 48 hrs) greater than 100 µM. It also gave an IC50 ([10]; SK-MEL-28, 48 h) of 37.5 µM, a TGI ([10]; SK-MEL-28, time 48 hrs) greater than 100 µM and an IC50 ([11]; UO-31, 48 h) of 10.5 µM. The TGI ([11]; UO-31, time 48 hrs) was greater than 100 µM, the IC50 ([12]; HOP-62, 48 h) was 69.3 µM and the TGI ([12]; HOP-62, time 48 hrs) was greater than 100 µM. The IC50 ([13]; A498, 48 h) was 7.03 µM, the TGI ([13]; A498, time 48 hrs) was 35.4 µM and the IC50 ([14]; A549, 48 h) was 14.9 µM. For the same compound, the TGI ([14]; A549, time 48 hrs) was greater than 100 µM, the IC50 ([15]; OVCAR-5, 48 h) was 24.4 µM and the TGI ([15]; OVCAR-5, time 48 hrs) was 85.5 µM. It also gave an IC50 ([16]; SNB-75, 48 h) of 16.9 µM, a TGI ([16]; SNB-75, time 48 hrs) of 97.5 µM and an IC50 ([17]; 48 h) of 14.8 µM. For the same compound, the TGI ([17]; time 48 hrs) was greater than 100 µM, the IC50 ([18]; 48 h) was 16.4 µM and the TGI ([18]; time 48 hrs) was 58.9 µM. It also gave an IC50 ([19]; SK-MEL-2, 48 h) of 29 µM, a TGI ([19]; SK-MEL-2, time 48 hrs) greater than 100 µM and an IC50 ([20]; SW-620, 48 h) of 10.9 µM. For the same compound, the TGI ([20]; SW-620, time 48 hrs) was greater than 100 µM, the IC50 ([21]; RXF 393, 48 h) was 20.8 µM and the TGI ([21]; RXF 393, time 48 hrs) was greater than 100 µM. For the same compound, the IC50 ([22]; DU-145, 48 h) was 28.2 µM, the TGI ([22]; DU-145, time 48 hrs) was greater than 100 µM and the IC50 ([23]; OVCAR-4, 48 h) was 31.9 µM. For the same compound, the TGI ([23]; OVCAR-4, time 48 hrs) was greater than 100 µM, the IC50 ([24]; OVCAR-8, 48 h) was 22 µM and the TGI ([24]; OVCAR-8, time 48 hrs) was greater than 100 µM. It also gave an IC50 ([25]; UACC-62, 48 h) of 14.6 µM, a TGI ([25]; UACC-62, time 48 hrs) of 86.5 µM and an IC50 ([26]; SF-268, 48 h) of 18.4 µM. The TGI ([26]; SF-268, time 48 hrs) was greater than 100 µM, the IC50 [27] was greater than 20 µM and the IC50 ([28]; NCI-H226, 48 h) was 22.9 µM. For the same compound, the TGI ([28]; NCI-H226, time 48 hrs) was greater than 100 µM, the IC50 ([29]; NCI-H23, 48 h) was 23.8 µM and the TGI ([29]; NCI-H23, time 48 hrs) was 58.1 µM. For the same compound, the IC50 ([30]; PC-3, 48 h) was 23.3 µM, the TGI ([30]; PC-3, time 48 hrs) was greater than 100 µM and the IC50 ([31]; K562, 48 h) was 48.6 µM. The TGI ([31]; K562, time 48 hrs) was greater than 100 µM, the IC50 ([32]; RPMI-8226, 48 h) was 18.8 µM and the TGI ([32]; RPMI-8226, time 48 hrs) was greater than 100 µM. For the same compound, the IC50 ([33]; HCT-15, 48 h) was 8.04 µM, the TGI ([33]; HCT-15, time 48 hrs) was greater than 100 µM and the IC50 ([34]; HCT-116, 48 h) was 44.6 µM. It also gave a TGI ([34]; HCT-116, time 48 hrs) greater than 100 µM, an IC50 ([35]; HCC 2998, 48 h) of 9.62 µM and a TGI ([35]; HCC 2998, time 48 hrs) of 54.6 µM. It also gave an IC50 ([36]; NCI-H522, 48 h) of 12.2 µM, a TGI ([36]; NCI-H522, time 48 hrs) of 50.4 µM and an IC50 ([37]; 48 h) of 13.1 µM. The TGI ([37]; time 48 hrs) was greater than 100 µM.
